Tests used:
[1] = tested on: table grapes type Red Globe; assay: Field test E2 table grapes Spain, bud burst; design: species or system Vitis vinifera; details: in vivo
Procedure: Three sections of a table grape plantation in southern Spain (type Red Globe) were treated with the following spray mixtures during the dormancy phase 45 days before natural bud burst (February 5):
E2-0: 600 liters per hectare of water with an addition of 0.1% Break-Thru® OE-446 E2-1: 600 liters per hectare of the spray mixture from example D-1 E2-18: 600 liters per hectare of the spray mixture from example D-18
(§1) As a result, the grapevine sprouts were evenly wetted.
On April 3, bud burst was recorded numerically.
(§2) Budding means number of buds that have developed at least one leaf after n days, based on the total number of buds on the sprouts at time n=0 days (day of application of spray mixture).

[2] = tested on: table grapes types Bordon AR and Hammar AR; assay: Field test E3 table grapes India, bud burst; design: species or system Vitis vinifera; details: in vivo
Procedure: Three sections of a table grape plantation in India with types Bordon AR and Hammar AR were treated with the following spray mixtures during the dormancy phase:
E3-0: 600 liters per hectare of water with an addition of 0.1% Break-Thru® OE-446 E3-1: 600 liters per hectare of the spray mixture from example D-1 E3-18: 600 liters per hectare of the spray mixture from example D-18
as §1
After 30 and 45 days, respectively, bud burst was recorded numerically.
as §2

[3] = tested on: Grape, type Pinot Noir (C4); assay: Greenhouse test, cut wine sprouts C4 dipped in test solution, bud development stage; format: in vivo, Vitis vinifera subsp. vinifera; design: key to Bud development stage, wine sprouts C4: Stage 0: Buds unchanged; Stage 1: Buds slightly swollen, first green tips visible; Stage 2: strongly swollen, green buds; Stage 3: Buds before breaking open, leaf or flower root already visible; Stage 4: Flower buds fully developed, but still closed, white petals already visible. In the case of the grapevine, stage 4 was the unfolding of the first leaves; Stage 5: Flowers fully open or, in the case of grapevine, unfolding of the flower roots (“Gescheine”) on the fully leafed sprouts
Procedure, shortened: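 Cut Pinot Noir grapevine sprouts were dipped in aqueous test solution (0.15 mol test substance, or 0.075 mol for bis-cyanamides, plus 0.15 g BreakThru OE-446 per 500 g total) and kept in water jars at about 22° C under natural light. Bud development was scored on a staged scale from closed buds to fully open flowers.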

## CC(=O)NC#N.[Na] [Example A-1, Sodium Acetylcyanamide]
[1]
  Effectiveness compared with prior art treatment with cyanamide: as effective as the prior art treatment with cyanamide
[2]
  Effectiveness compared with prior art treatment with cyanamide: at least as effective as the prior art treatment with cyanamide
[3]; T1 (14 d), 0.15 mol (A-14, A-15: 0.075 mol) per 500 g solution
  Bud development stage, wine sprouts C4: 0
[3]; T2 (16 d)
  Bud development stage, wine sprouts C4: 0
[3]; T3 (21 d)
  Bud development stage, wine sprouts C4: 0
[3]; T4 (27 d)
  Bud development stage, wine sprouts C4: 1
[3]; T5 (36 d)
  Bud development stage, wine sprouts C4: 4
[3]; T6 (56 d)
  Bud development stage, wine sprouts C4: 5
[3]; stage 4 reached or exceeded after 36 days vs negative control
  Dormancy-breaking effect according to the definition, wine C4: dormancy-breaking effect
